# Paper doi:10.1101/2025.02.17.637997, “Phosphorylation-State Modulated Binding of HSP70: Structural Insights and Compensatory Protein Engineering” (bioRxiv, 2025)
# How the values were obtained:
# CHIP TPR-UBOX = assay: Fluorescence polarization, CHIP TPR-UBOX (CC deletion); format: binding; conditions: FP; Fig. 2C
# Source text: (§1) A complete list of vectors is listed in Table S1 and deposited at Addgene (pending ID). Plasmids were maintained and propagated in DH5-alpha E. coli and purified using the Miniprep plasmid kit (Qiagen) or Quantum Prep® Plasmid Midiprep Kit (Bio-Rad). We used the Q5 Site-Directed Mutagenesis Kit (NEB) or […] II XL (NC9045762, Agilent Technologies) site-directed mutagenesis kit for editing plasmids and validated via DNA sequencing. Lifetein or Genscript synthesized the peptides used in the study. […] The amino-terminal biotin-labeled HSP70 tail peptide (biotin-[…], termed as biotin-EEVD) and the amino-terminal biotin-labeled pT-HSP70 tail peptide (biotin-GSGSGP(pT)IEEVD, termed as biotin-pEEVD) were purchased (Lifetein). The peptides used for fluorescent polarization were N-FITC-Ahx-[…] (EEVD) or N-FITC-Ahx-GSGP(pT)IEEVD (pEEVD). Recombinant CHIP-TPR constructs were recombinantly expressed using the pHis//2 CHIP-TPR (21–154) plasmid and purified as previously described ([21]) and additional CHIP proteins were purified as previously described ([22]).
# (§2) The N-terminally-labelled peptides were loaded into PCR reaction tubes at 2X (40 nM), with the final concentration being 20 nM. Recombinant CHIP constructs were added into the tubes at the indicated concentrations. […] The polarization reads were normalized to the dilution buffer. […]
# CHIP TPR-CC = CHIP TPR-CC (Homo sapiens, UniProt Q9UNE7); assay: Fluorescence polarization, CHIP TPR-CC fragment; format: binding; conditions: FP; Fig. 2C
# Source text: as §1, §2
# [1] = system: HSP70 steady-state levels in COS-7 cells; assay: Cycloheximide chase of HSP70 steady-state levels, COS-7; format: cell-based
# Experimental: (§3) HEK293 and COS-7 cells were acquired from the UNC Lineberger Comprehensive Cancer Center Tissue Culture Facility. Cultures were maintained in Dulbecco’s Modified Eagle Medium with 10% fetal bovine serum at 37 °C and 5% CO2. Using the manufacturers’ instructions, X-tremeGENE 9 was used to transfect cells with plasmid DNA except for NanoBiT constructs, in which case we used Lipofectamine 3000 (Thermo Fisher Scientific). Where indicated, twenty-four hours post-transfection, cells were treated with 20 μM MG-132 (Selleck Chemicals) for 6 h or 100 μM cycloheximide (Sigma-Aldrich) for the stated duration.
# (§4) Samples were collected in a lysis buffer composed of 50 mM Tris-HCl (pH 7.4), 150 mM NaCl, 2 mM EDTA, and 1% Triton X-100, supplemented with 1X Halt protease and phosphatase inhibitor (Thermo Scientific). The samples were then sonicated and combined with Laemmli sample buffer (Bio-Rad). The lysates were resolved on 4–15% TGX Stain-Free gels (Bio-Rad) and transferred to PVDF membranes (Bio-Rad). The membranes were blocked in 5% milk and incubated with primary antibodies (Table S3) overnight at 4°C. Following this, HRP-conjugated secondary antibodies (Cell Signaling Technology) were applied. Detection was performed using Lumigen ECL Ultra (Lumigen, tma-100), and the blots were imaged with the ChemiDoc Imaging System (BioRad).
# HEK-293 cells = conditions: HEK-293, electrical impedance; ref [16]; cited from earlier work
# [2] = system: HSP70 steady-state levels in HEK-293 cells; assay: Cycloheximide chase of HSP70 steady-state levels, HEK-293; format: cell-based; conditions: Flag immunoblot, representative, Fig. S1
# Experimental: as §3, §4
# SmBiT-CHIP-G132N [3] = assay: NanoBiT live-cell interaction, COS-7, SmBiT-CHIP-G132N; format: cell-based; conditions: COS-7, CHIP-G132N, three independent transfections, Fig. 1F
# Experimental: as §3
# (§5) NanoBiT Protein: Protein Interaction System (Promega) was used to measure protein-protein interaction data following the manufacturer’s instructions. As previously described, LgBiT-HSP70 and SmBiT-CHIP construct interactions were used as positive controls ([22]). Twenty-four hours post-transfection, the cells were collected, replated in 96-well clear bottom white-sided tissue culture plates, and maintained at 37 °C and 5% CO2 for 45 min. Nano-Glo Live Cell Reagent (Promega) was added, and luminescence was measured using a CLARIOstar microplate reader over 20 minutes. The total area under the maximum luminescence curve was quantified and used to compare changes in HSP70-CHIP interactions relative to the WT-WT conditions.
# SmBiT-CHIP-WT [4] = assay: NanoBiT live-cell interaction, COS-7, SmBiT-CHIP-WT; format: cell-based; conditions: COS-7, CHIP-WT, three independent transfections, Fig. 1F
# Experimental: as §3, §5
# SmBiT-CHIP-WT [5] = assay: NanoBiT live-cell interaction, HEK-293, SmBiT-CHIP-WT; format: cell-based; conditions: HEK-293, CHIP-WT, luminescence over 20 min, three independent transfections, Fig. 1E
# Experimental: as §3, §5
# SmBiT-CHIP-G132N [6] = assay: NanoBiT live-cell interaction, HEK-293, SmBiT-CHIP-G132N; format: cell-based; conditions: HEK-293, CHIP-G132N, three independent transfections, p = 0.2114 vs. Δ with CHIP-WT, Fig. 1E
# Experimental: as §3, §5
# CHIP-WT = molecular target: T1, CHIP-WT (Homo sapiens, UniProt Q9UNE7); assay: Co-immunoprecipitation of HSP70 with CHIP-WT, COS-7; format: cell-based; conditions: Co-IP of MYC-CHIP-WT, vs HSP70-WT and HSP70-T636A, densitometry, Fig. 1I
# T1 construct: His; made in house
# T1 sequence (Q9UNE7 1-303): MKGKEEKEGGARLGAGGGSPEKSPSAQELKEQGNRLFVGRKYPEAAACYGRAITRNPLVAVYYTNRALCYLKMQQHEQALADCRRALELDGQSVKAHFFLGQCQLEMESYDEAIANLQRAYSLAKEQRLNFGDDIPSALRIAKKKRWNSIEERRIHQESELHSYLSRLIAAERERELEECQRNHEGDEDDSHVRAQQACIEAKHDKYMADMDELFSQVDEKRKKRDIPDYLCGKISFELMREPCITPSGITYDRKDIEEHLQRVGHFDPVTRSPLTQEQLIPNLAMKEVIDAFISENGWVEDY
# Experimental: as §4
# Ezview™ Red Anti-c-Myc Affinity Gel Beads (Sigma-Aldrich) were used for co-immunoprecipitation of myc-tagged proteins. Proteins were eluted via boiling before western blot analysis.
# CHIP-WT or CHIP-G132N = assay: Fluorescence polarization, phosphorylated vs unmodified EEVD peptide; format: binding; conditions: FP, CHIP-WT or CHIP-G132N (Fig. 2B)
# Source text: as §1, §2
# CHIP-G132N = molecular target: T2, CHIP-G132N (Homo sapiens, UniProt Q9UNE7, G132N); assay: Biolayer interferometry, CHIP-G132N TPR; format: binding; conditions: BLI; kon; CHIP-G132N TPR towards pEEVD; Fig. S2
# T2 construct: Recombinant CHIP-TPR constructs were recombinantly expressed using the pHis//2 CHIP-TPR (21–154) plasmid; His; made in house
# T2 sequence (Q9UNE7 21-154 G132N): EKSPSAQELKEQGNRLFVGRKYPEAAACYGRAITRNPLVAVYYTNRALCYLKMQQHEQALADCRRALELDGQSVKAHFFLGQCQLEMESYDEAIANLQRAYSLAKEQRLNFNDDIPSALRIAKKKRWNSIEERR
# Experimental: Bio-layer interferometry measured peptide binding using a BLItz instrument (FortéBio, Sartorius) with streptavidin (SA) sensors. Biotin-EEVD and biotin-pEEVD were solubilized in 20 mM HEPES, 150 mM NaCl, pH 7.0. Affinity measurements were made using the advanced kinetic protocol within the BLItz Pro system software. Biosensors were hydrated for ten minutes in assay buffer comprising 20 mM HEPES, 150 mM NaCl, 5 mM β-mercaptoethanol, pH 7.2. For each affinity measurement, a new, hydrated biosensor was placed on the BLItz tip, and the “Initial Baseline” step was completed by incubation for 30 seconds in 500 μl assay buffer in an opaque black microcentrifuge tube (Argos Technologies). Peptides were loaded during the “Loading Step” by incubating the tip in 4 μl of either peptide for 60 seconds. The “Baseline step” was then conducted by incubation for 30 seconds in 500 μl assay buffer in an opaque black microcentrifuge tube. The “Association step” was performed by incubating the tip in 4 μl of the appropriate TPR protein construct, at protein concentrations of 1 to 25 μM, in assay buffer in an opaque black microcentrifuge tube for 120 seconds. […] Affinities (Kd) were calculated by the BLItz Pro software as Kd=koff/kon, where koff and kon were determined by individual fits to the “dissociation step” and “association step,” respectively, for each run.
# [7] = molecular target: T3, CHIP TPR (residues 21–154) (Homo sapiens, UniProt Q9UNE7); assay: Biolayer interferometry, CHIP TPR (21-154); format: binding; conditions: BLI; pEEVD vs EEVD; Fig. 2E
# T3 construct: the extended TPR domain of CHIP (residues 21–154) using BLI; His; made in house
# Source text: as §1
# Bio-layer interferometry measured peptide binding using a BLItz instrument (FortéBio, Sartorius) with streptavidin (SA) sensors. […] Affinities (Kd) were calculated by the BLItz Pro software as Kd=koff/kon, where koff and kon were determined by individual fits to the “dissociation step” and “association step,” respectively, for each run.
substance,measurement,setting,value
N-FITC-Ahx-GSGPTIEEVD [unphosphorylated HSP70 tail peptide used for fluorescent polarization],EEVD tail peptide interaction with U-box moved closer to TPR,CHIP TPR-UBOX,eliminated EEVD tail peptide interactions
same,"EEVD tail interaction, effect of the coiled-coil domain",CHIP TPR-CC,minimal change
HSP70-T636D: phospho-mimetic version of HSP70,loss of HSP70 steady-state level after inhibiting translation,"[1]; cycloheximide 100 μM, six hours, change from time 0, representative immunoblot, Fig. 1J",76%
same,HSP70 steady-state level after cycloheximide,"[1]; cycloheximide, six hours, compared to HSP70-WT and HSP70-T636A, Fig. 1J",more robust decreases
same,HSP70 steady-state level with proteasome inhibitor,"[1]; with MG-132, Fig. 1J",recovery of protein levels
same,effect on cell growth / proliferation,HEK-293 cells,no effect
same,percent change of HSP70 level from time 0,"[2]; cycloheximide +MG132, 6 h (column from layout)",+98%
same,percent change of HSP70 level from time 0,"[2]; cycloheximide, 6 h, without MG132 (column from layout)",-80%
same,Δ luminescence comparing HSP70-T636D to HSP70-T636A,SmBiT-CHIP-G132N [3],−66%
same,Δ luminescence comparing HSP70-T636D to HSP70-T636A,SmBiT-CHIP-WT [4],−85%
same,decrease in luminescence compared to HSP70-T636A,SmBiT-CHIP-WT [5],42%
same,decrease in luminescence compared to HSP70-T636A,SmBiT-CHIP-G132N [6],57%
same,reduction of HSP70 co-precipitated by CHIP-WT,CHIP-WT,over 90%
"N-FITC-Ahx-GSGP(pT)IEEVD [pEEVD, phosphorylated HSP70 tail peptide used for fluorescent polarization]",decrease in interaction compared to the unmodified threonine,CHIP-WT or CHIP-G132N,6–10 fold
same,association rate,CHIP-G132N,higher association rates
same,decrease in binding affinity of CHIP TPR towards the phosphorylated EEVD tail,[7],~10 fold
